Source: patent US8569007B2, “Method for reducing the appearance of false positive bands in SDS-page analysis of proteolytic digestion of a sample” (Merck Sharp & Dohme Corp., priority 2006, dated 2013)

Tested on: thiol-protease
Conditions: 100 μM E-64; anti-IGF1R antibody substrate; overnight at room temperature; reducing SDS-PAGE (FIG. 5)
Description: Gels containing 4-20% polyacryamide were used for reducing SDS-PAGE. Recipes for buffers were as follows: • 1.5M Tris pH 8.8: Dissolve 90.73 g Tris base in 400 ml DI H2O. pH to 8.8 with Hydrochloric Acid. Bring to volume of 500 ml with DI H2O, Store at 4° C. (This is one of the components used to make pH 8.8 Sample Buffer—below) • pH 8.8 Sample Buffer: Combine the following: 228 ml of DI H2O, 50 ml Glycerol, 50 ml 1.5M Tris pH 8.8, 50 ml 10% SDS solution, and 10 ml 0.05% Bromophenol Blue. Store at 4° C. • 2× Reducing Sample Buffer: Prepare 3% by volume 2-Mercaptoethanol in pH 8.8 Sample Buffer. Prepare fresh prior to use.
The buffers were combined with the samples in equal volumes and allowed to sit overnight at room temperature before boiling. This increases the sensitivity of the assay for protease activity. The samples were then boiled directly before submitting for SDS-PAGE.
E-64 was dissolved in DMSO and EDTA was dissolved in sterile distilled water. Samples were allowed to incubate overnight at room temperature. Samples were then combined in equal parts with anti-IGF1R drug substance to yield a final concentration of 0.5 mg/ml antibody. Reducing buffer was added in equal parts to the samples containing antibody. Following overnight incubation, these samples were then loaded onto gels for reducing SDS-PAGE for a final load of 10-12 μg of antibody. […]

CC(C)C[C@H](NC(=O)[C@H]1O[C@@H]1C(=O)O)C(=O)NCCCCN=C(N)N (relative stereo) [E-64, trans-epoxy-succinyl-L-leucylamido-(4-guanidino)butane]
inhibition of active thiol-protease in 1615 CHO medium supplement: inhibited
